Read-outs that look alike come from different tables or passages of the source.
Key:
[1] = test system: Hh signaling (Gli1 mRNA) in C3H10T1/2 cells; test: Down-regulation of endogenous Gli1 mRNA in Hh-dependent C3H10T1/2 cells; format: cell-based, mouse; details: for IC50 / mrna remaining at 1 µM: Mus musculus; for mrna remaining at 1 µM: read-out: % Gli expression (1 μM)
Experimental: To determine whether the triazole functionality was required for inhibition of Hh signaling, the ability of Analogue 1 to down-regulate the well-characterized Hh pathway target gene Gli1 in the Hh-dependent C3H10T1/2 cell line was determined. In this cellular model, activation of the pathway with exogenous recombinant Hh ligand results in a characteristic up-regulation of Gli1 mRNA, while concomitant administration of a pathway inhibitor reduces Gli1 expression.
(§1) General Information. Protocols for general cell culture, qPCR and Hh inhibition in C3H10T1/2 and ASZ cells are as previously described.^28 Protocols for the initiation and growth of Math1-Cre-ER; Ptc^fl/fl medulloblastoma tumors, isolation and in vitro culture of MERP MB cells, as wells as the anti-proliferation and qPCR studies performed in these cells were as previously described.^a Sonic Hedgehog (C25II) recombinant mouse protein was purchased from Life Technologies. aData was analyzed using GraphPad Prism 5 and reported values represent mean±SEM for at least two separate experiments performed in triplicate.
(§2) In this well-studied model system for evaluating small molecule inhibition of Hh signaling, addition of an exogenous Hh agonist (recombinant Hh ligand or small molecule) results in a characteristic increase in Gli1 mRNA expression. Concomitant incubation with a pathway inhibitor reduces Gli1 expression. Analogues that reduced Gli1 mRNA levels below 20% in this assay were subsequently evaluated for their ability to reduce Gli1 mRNA expression levels in a concentration-dependent fashion in these cells and the Hh-dependent murine BCC cell line ASZ. In addition, several compounds were evaluated for their anti-proliferative effects in primary Hh-dependent medulloblastoma cells isolated from conditional patched knockout (Math1-Cre-ER; Ptc^fl/fl, MERP) mice. […] Finally, each of these analogues was evaluated for its ability to inhibit proliferation in human umbilical vein […] cells (HUVECs). In vivo angiogenesis is dependent on endothelial cell proliferation; therefore, the inhibition of HUVEC proliferation is commonly utilized as an early stage in vitro model of anti-angiogenic activity.

[2] = test system: Hh signaling (Gli1 mRNA) in ASZ cells; test: Down-regulation of endogenous Gli1 mRNA in ASZ cells; format: cell-based, murine; details: Mus musculus
Experimental: as §1, §2

HUVEC = HUVEC proliferation (MTS); format: cell-based, human
Description: In vivo angiogenesis is dependent on endothelial cell proliferation; therefore, the inhibition of HUVEC proliferation is commonly utilized as an early stage in vitro model of anti-angiogenic activity. […] Under normal conditions, HUVECs plated and grown on Matrigel migrate towards each other, align, and form tubes that resemble in vivo capillary beds. This assay is generally considered a more robust model of angiogenesis as it requires several aspects of proper vessel formation, including adhesion, migration, and tube formation.
HUVEC Cell Viability and Proliferation. HUVEC cell viability and proliferation will be assessed by measuring cellular metabolic activity using MTT (viability) or MTS (proliferation) according to the manufacturer's instructions. HUVECs (3000 cells/well) are seeded in a 96-well plate and allowed to attach overnight. […] For viability, the final value is a corrected optical density (570 nm-690 nm). All viability and GI50 values are from a minimum of three separate experiments performed in triplicate.
HUVEC Cell Viability and Proliferation. HUVEC cell proliferation was assessed by measuring cellular metabolic activity using standard MTS/PMS protocols according to manufacturer's instructions. Briefly, HUVECs (3,000 cells/well) were seeded in a 96-well plate and allowed to attach overnight. Cells were treated with varying concentrations of drug as indicated and proliferation was assessed after 72 h with MTS.

[3] = C3H 10T1/2, 1 μM, 24 hr incubation, relative to recombinant Hh ligand control (100%)
[4] = Homo sapiens, HUVEC, 72 h, read-out: GI50 (μM) HUVEC
[5] = C3H 10T1/2, 24 hr incubation, read-out: IC50 (μM) C3H10T1/2
[6] = C3H 10T1/2, read-out: inactive in the C3H10T1/2 MEFs at concentrations up to
[7] = 48 hr incubation, read-out: IC50 (μM) ASZ
[8] = read-out: IC50 down-regulation of Gli1 in ASZ cells
[9] = C3H 10T1/2, 24 h, read-out: IC50 (μM) C3H10T1/2, 24 hr incubation
[10] = 48 h, read-out: IC50 (μM) ASZ, 48 hr incubation
[11] = Homo sapiens, HUVEC, 72 h, read-out: GI50 (μM) HUVEC, 72 h
[12] = C3H 10T1/2, read-out: IC50 (μM) Gli1-C3Hs

Molecule: CS(=O)(=O)c1ccc(C(=O)Nc2ccc(Cl)c(-c3ccccn3)c2)c(Cl)c1 [GDC-0449, reference compound]
- IC50 ([1]; C3H 10T1/2, down-regulation of endogenous Gli1 mRNA, read-out: Hh pathway inhibition C3H10T1/2): 0.082 ± 0.02 µM
- IC50 ([2]; down-regulation of endogenous Gli1 mRNA, read-out: Hh pathway inhibition ASZ): 0.04 ± 0.01 µM

Molecule: CC(=O)N1CCN(c2ccc(OCC3COC(Cn4ccnc4)(c4ccc(Cl)cc4Cl)O3)cc2)CC1 (centres unmarked) [ketoconazole, reference compound]
- Hh inhibitory activity relative to ITZ ([1]; 1 μM): significant reduction in Hh inhibitory activity

Molecule: CCC(C)n1ncn(-c2ccc(N3CCN(c4ccc(OCC5COC(C)(Cn6cncn6)O5)cc4)CC3)cc2)c1=O (centres unmarked) [Compound 4a, 4-(4-(4-(4-((2-((1H-1,2,4-triazol-1-yl)methyl)-2-methyl-1,3-dioxolan-4-yl)methoxy)phenyl)piperazin-1-yl)phenyl)-2-(sec-butyl)-2,4-dihydro-3H-1,2,4-triazol-3-one]
- mrna remaining at 1 µM [1, 3]: 61.4 ± 3.5%
- GI50 (HUVEC; [4]): 18.4 ± 4.5 µM

Molecule: CCCn1ncn(-c2ccc(N3CCN(c4ccc(OC[C@H]5CO[C@@](C)(c6ccc(Cl)cc6Cl)O5)cc4)CC3)cc2)c1=O [Compound 25a, 4-(4-(4-(4-(((2R,4S)-2-(2,4-dichlorophenyl)-2-methyl-1,3-dioxolan-4-yl)methoxy)phenyl)piperazin-1-yl)phenyl)-2-propyl-2,4-dihydro-3H-1,2,4-triazol-3-one]
- IC50 [1, 5]: > 10 µM
- IC50 [1, 6]: > 10 µM
- IC50 [2, 7]: 0.54 ± 0.06 µM
- IC50 [2, 8]: 0.54 µM
- GI50 (HUVEC; [4]): 24.9 ± 2.2 µM

Molecule: CC[C@@H](C)n1ncn(-c2ccc(N3CCN(c4ccc(OCC5COC(Cn6cncn6)(c6ccc(Cl)cc6Cl)O5)cc4)CC3)cc2)c1=O (stereo partly drawn) [Compound 7a, 4-(4-(4-(4-((2-((1H-1,2,4-triazol-1-yl)methyl)-2-(2,4-dichlorophenyl)-1,3-dioxolan-4-yl)methoxy)phenyl)piperazin-1-yl)phenyl)-2-((R)-sec-butyl)-2,4-dihydro-3H-1,2,4-triazol-3-one]
- mrna remaining at 1 µM ([1]; C3H 10T1/2, 24 h): 3 ± 0.9%
- IC50 [1, 9]: 0.14 ± 0.04 µM
- IC50 [2, 10]: 0.16 ± 0.07 µM
- GI50 (HUVEC; [11]): 1.7 ± 0.4 µM

Molecule: CC[C@H](C)n1ncn(-c2ccc(N3CCN(c4ccc(OC[C@H]5CO[C@@](C)(c6ccc(Cl)cc6Cl)O5)cc4)CC3)cc2)c1=O [Compound 15a, 2-((S)-sec-butyl)-4-(4-(4-(4-(((2R,4S)-2-(2,4-dichlorophenyl)-2-methyl-1,3-dioxolan-4-yl)methoxy)phenyl)piperazin-1-yl)phenyl)-2,4-dihydro-3H-1,2,4-triazol-3-one]
- IC50 [1, 5]: > 10 µM
- IC50 [1, 6]: > 10 µM
- IC50 [2, 7]: 0.55 ± 0.07 µM
- IC50 [2, 8]: 0.55 µM
- GI50 (HUVEC; [4]): 78.3 ± 17.3 µM

Molecule: CCC(C)n1ncn(-c2ccc(N3CCN(c4ccc(O)cc4)CC3)cc2)c1=O (centres unmarked) [Compound 45a]
- % Gli expression (1 μM) ([1]; 1 μM, 24 hr incubation, relative to recombinant Hh ligand control (100%)): 45.7 ± 3.0%
- GI50 (HUVEC; 72 h, read-out: GI50 (μM) HUVEC): > 100 µM

Molecule: CC(C)N1CCN(c2ccc(OCC3COC(Cn4cncn4)(c4ccc(Cl)cc4Cl)O3)cc2)CC1 (centres unmarked) [terconazole, reference compound]
- Hh inhibitory activity relative to ITZ ([1]; 1 μM): significant reduction in Hh inhibitory activity

Molecule: C[C@@H](O)Cn1ncn(-c2ccc(N3CCN(c4ccc(OCC5COC(Cn6cncn6)(c6ccc(Cl)cc6Cl)O5)cc4)CC3)cc2)c1=O (some centres unmarked) [Itz-psz #2 (R−)]
- IC50 [1, 12]: 0.18 ± 0.02 µM
- IC50 ([2]; read-out: IC50 (μM) Gli1-ASZs): 0.1 ± 0.01 µM

Molecule: CC[C@H](C)n1ncn(-c2ccc(N3CCN(c4ccc(OCC5COC(Cn6cncn6)(c6ccc(Cl)cc6Cl)O5)cc4)CC3)cc2)c1=O (stereo partly drawn) [Compound 6a, 4-(4-(4-(4-((2-((1H-1,2,4-triazol-1-yl)methyl)-2-(2,4-dichlorophenyl)-1,3-dioxolan-4-yl)methoxy)phenyl)piperazin-1-yl)phenyl)-2-((S)-sec-butyl)-2,4-dihydro-3H-1,2,4-triazol-3-one]
- mrna remaining at 1 µM ([1]; C3H 10T1/2, 24 h): 6.9 ± 3.1%
- IC50 [1, 9]: 0.16 ± 0.04 µM
- IC50 [2, 10]: 0.14 ± 0.008 µM
- GI50 (HUVEC; [11]): 2.5 ± 0.3 µM

Molecule: 1-(sec-butyl)-4-(4-(4-(4-((2-(2,4-dichlorophenyl)-2-methyl-1,3-dioxolan-4-yl)methoxy)phenyl)piperazin-1-yl)phenyl)-1H-1,2,4-triazol-5(4H)-one [Compound 2a]
- GI50 (HUVEC; read-out: GI50 HUVEC proliferation): 0.49 µM

Molecule: CC[C@H](C)n1ncn(-c2ccc(N3CCN(c4ccc(OC[C@H]5CO[C@](C)(c6ccc(Cl)cc6Cl)O5)cc4)CC3)cc2)c1=O [Compound 14a, 2-((S)-sec-butyl)-4-(4-(4-(4-(((2S,4S)-2-(2,4-dichlorophenyl)-2-methyl-1,3-dioxolan-4-yl)methoxy)phenyl)piperazin-1-yl)phenyl)-2,4-dihydro-3H-1,2,4-triazol-3-one]
- IC50 [1, 5]: 1.1 ± 0.17 µM
- IC50 [2, 7]: 2.5 ± 0.7 µM
- GI50 (HUVEC; [4]): 7.7 ± 4.4 µM

Molecule: CCCn1ncn(-c2ccc(N3CCN(c4ccc(OC[C@@H]5CO[C@](C)(c6ccc(Cl)cc6Cl)O5)cc4)CC3)cc2)c1=O [Compound 23a, 4-(4-(4-(4-(((2S,4R)-2-(2,4-dichlorophenyl)-2-methyl-1,3-dioxolan-4-yl)methoxy)phenyl)piperazin-1-yl)phenyl)-2-propyl-2,4-dihydro-3H-1,2,4-triazol-3-one]
- IC50 [1, 5]: > 10 µM
- IC50 [2, 7]: 1.4 ± 0.5 µM
- GI50 (HUVEC; [4]): 49.9 ± 15.9 µM

Molecule: CC[C@@H](C)n1ncn(-c2ccc(N3CCN(c4ccc(OC[C@H]5CO[C@@](C)(c6ccc(Cl)cc6Cl)O5)cc4)CC3)cc2)c1=O [Compound 19a, 2-((R)-sec-butyl)-4-(4-(4-(4-(((2R,4S)-2-(2,4-dichlorophenyl)-2-methyl-1,3-dioxolan-4-yl)methoxy)phenyl)piperazin-1-yl)phenyl)-2,4-dihydro-3H-1,2,4-triazol-3-one]
- IC50 [1, 5]: 6.6 ± 0.3 µM
- IC50 [2, 7]: 2.8 ± 0.9 µM
- GI50 (HUVEC; [4]): 65 ± 11.5 µM

Molecule: CC[C@H](C)n1ncn(-c2ccc(N3CCN(c4ccc(OC[C@@H]5CO[C@@](C)(c6ccc(Cl)cc6Cl)O5)cc4)CC3)cc2)c1=O [Compound 16a, 2-((S)-sec-butyl)-4-(4-(4-(4-(((2R,4R)-2-(2,4-dichlorophenyl)-2-methyl-1,3-dioxolan-4-yl)methoxy)phenyl)piperazin-1-yl)phenyl)-2,4-dihydro-3H-1,2,4-triazol-3-one]
- IC50 [1, 5]: 0.47 ± 0.001 µM
- IC50 [2, 7]: 0.38 ± 0.07 µM
- GI50 (HUVEC; [4]): 18.3 ± 11.8 µM

Molecule: CCC(C)n1ncn(-c2ccc(N3CCN(c4ccc(OCC5COC(C)(C)O5)cc4)CC3)cc2)c1=O (centres unmarked) [Compound 5a, 1-(sec-butyl)-4-(4-(4-(4-((2,2-dimethyl-1,3-dioxolan-4-yl)methoxy)phenyl)piperazin-1-yl)phenyl)-1H-1,2,4-triazol-5(4H)-one]
- mrna remaining at 1 µM [1, 3]: 71.4 ± 5.5%
- GI50 (HUVEC; [4]): > 100 µM

Molecule: CCCn1ncn(-c2ccc(N3CCN(c4ccc(OCC5COC(Cn6cncn6)(c6ccc(Cl)cc6Cl)O5)cc4)CC3)cc2)c1=O (centres unmarked) [Compound 8a, 4-(4-(4-(4-((2-((1H-1,2,4-triazol-1-yl)methyl)-2-(2,4-dichlorophenyl)-1,3-dioxolan-4-yl)methoxy)phenyl)piperazin-1-yl)phenyl)-1-propyl-1H-1,2,4-triazol-5(4H)-one]
- mrna remaining at 1 µM ([1]; C3H 10T1/2, 24 h): 58.5 ± 6.4%
- GI50 (HUVEC; [11]): 4.7 ± 0.3 µM

Molecule: C[C@H](O)Cn1ncn(-c2ccc(N3CCN(c4ccc(OCC5COC(Cn6cncn6)(c6ccc(Cl)cc6Cl)O5)cc4)CC3)cc2)c1=O (some centres unmarked) [Itz-psz #1 (S−)]
- IC50 [1, 12]: 0.45 ± 0.09 µM
- IC50 ([2]; read-out: IC50 (μM) Gli1-ASZs): 0.15 ± 0.01 µM
